The target of test [1] is T1, Cyclooxygenase-2 (COX-2) (Homo sapiens, UniProt P35354).
T1 sequence (P35354 18-604): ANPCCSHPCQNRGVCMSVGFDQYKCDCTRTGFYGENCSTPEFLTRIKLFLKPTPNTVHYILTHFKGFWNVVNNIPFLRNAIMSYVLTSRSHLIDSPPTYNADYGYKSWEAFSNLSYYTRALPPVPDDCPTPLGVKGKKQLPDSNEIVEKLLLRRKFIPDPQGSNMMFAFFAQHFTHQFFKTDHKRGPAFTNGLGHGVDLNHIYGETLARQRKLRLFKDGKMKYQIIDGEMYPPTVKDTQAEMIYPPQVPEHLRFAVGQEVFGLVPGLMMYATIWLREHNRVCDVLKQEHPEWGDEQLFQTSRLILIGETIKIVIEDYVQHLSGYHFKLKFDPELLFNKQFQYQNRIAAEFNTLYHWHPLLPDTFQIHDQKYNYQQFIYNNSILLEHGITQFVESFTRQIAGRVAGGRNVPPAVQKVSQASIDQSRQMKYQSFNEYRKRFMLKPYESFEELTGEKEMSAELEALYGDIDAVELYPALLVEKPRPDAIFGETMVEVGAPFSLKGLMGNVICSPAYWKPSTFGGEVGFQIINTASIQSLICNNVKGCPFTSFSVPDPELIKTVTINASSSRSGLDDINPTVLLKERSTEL
Nature of the test: COX-2-Assay (in vitro), fluorometric ADHP/resorufin. The test is classed as biochemical. To be noted: average of at least 2 independent experiments. From the text: Cyclooxygenase-2 (COX-2) in the presence of test substance is mixed with the fluorometric substrate 10-acetyl-3,7-dihydroxyphenoxanin (ADHP) and Heme. The reaction is started by addition of the substrate arachidonic acid.
COX-2 converts the arachidonic acid into the prostaglandin endoperoxide G2 (PGG2). PGG2 is reduced to the corresponding alcohol PGH2. During this reaction ADHP results in fluorescent resorufin. Resorufin is quantified at an extinction wavelength of 535 nm and an emission wavelength of 590 nm.
[formula] where • Resorufin test substance=Resorufin concentration of the wells with test substance and with COX-2 • Resorufin control=Resorufin concentration of the wells without test substance, but with COX-2 • Resorufin control without COX-2=Resoruf in concentration of the wells without test substance and without COX-2
From the inhibition of the COX-2[%] in a series of dilutions of tested samples the IC50 is calculated. This is the concentration at which the activity of the COX-2 is inhibited by 50%.

For test [2], the system named is 3T3-L1-cells (mouse embryonic fibroblast-like preadipocytes cell line). Nature of the test: Lipolysis assay (in vitro), free glycerol in supernatant. In kind it is cell-based. To be noted: added at day 10 for 20 hours, basal lipolysis = 100%. As to the method: 3T3-L1-cells (mouse embryonic fibroblast-like preadipocytes cell line) were propagated in Dulbecco's Modified Eagle Medium (DMEM), enriched with 10% newborn calf serum (CS) at 37° C. and 5% CO2 and seeded in 48-well plates for lipolysis. After reaching confluence at day −2 the differentiation was induced by changing medium at day 0 to DMEM with 10% fetal calf serum (FCS) containing a hormone mix (HM) of 1 μg/ml insulin, 0.25 μM dexamethasone (Dex) and 0.5 mM 3-isobutyl-1-methylxanthine (IBMX). Medium is renewed every other day. At day 2, medium consisting of DMEM, 10% FCS and 1 μg/ml insulin is added. From day 4 on, only DMEM containing 10% FCS is used for further cultivation of cells. For determination of lipolysis, compounds of interest are added at day 10 for 20 hours mixed with bovine serum albumin (BSA). If lipolysis occurs, cells secrete glycerol into the supernatant. Therefore, supernatants are harvested and determination of lipolysis is performed by using a free glycerol reagent. The quantification of the free glycerol is carried out on the basis of an enzymatic method with a free glycerol reagent.
The lipolysis in the presence of the test substances is calculated according to the following equation:
[formula] wherein • A test substance=absorption of the wells with test substance and with cells • A control=absorption of the wells without test substance, but with cells • A control without cells=absorption of the wells without test substance and without cells

As for `CCCc1cc(OC)c2c(c1)C(C)C(c1ccc(O)c(OC)c1)O2` (stereo not drawn) [compound of formula (I), 2-Methoxy-4-(7-methoxy-3-methyl-5-propyl-2,3-dihydro-benzofuran-2-yl)-phenol], the “IC50 calculated from the inhibition of COX-2” value in test [1] is 12.3 ppm. Moreover, the “Relative lipolysis compared to basal lipolysis” value is listed as 85% ± 1.6 in test [2] (1 μM) and 85% ± 1.5 in test [2] (10 μM).
